# Measured values reported in ChEMBL document CHEMBL1201862, “PubChem BioAssay data set” (2004).
# Calls of active or inactive are those of the source.
# Key:
# Aminopeptidase N = biological target: T1, Aminopeptidase N (Plasmodium falciparum FcB1/Columbia, UniProt O96935); assay: P. falciparum M1AAP inhibitors, biochemical, fluorogenic H-Leu-NHMec substrate, 1536-well (AID 1445); design: species or system Plasmodium falciparum 3D7, 3D7
# T1 sequence (O96935 whole entry): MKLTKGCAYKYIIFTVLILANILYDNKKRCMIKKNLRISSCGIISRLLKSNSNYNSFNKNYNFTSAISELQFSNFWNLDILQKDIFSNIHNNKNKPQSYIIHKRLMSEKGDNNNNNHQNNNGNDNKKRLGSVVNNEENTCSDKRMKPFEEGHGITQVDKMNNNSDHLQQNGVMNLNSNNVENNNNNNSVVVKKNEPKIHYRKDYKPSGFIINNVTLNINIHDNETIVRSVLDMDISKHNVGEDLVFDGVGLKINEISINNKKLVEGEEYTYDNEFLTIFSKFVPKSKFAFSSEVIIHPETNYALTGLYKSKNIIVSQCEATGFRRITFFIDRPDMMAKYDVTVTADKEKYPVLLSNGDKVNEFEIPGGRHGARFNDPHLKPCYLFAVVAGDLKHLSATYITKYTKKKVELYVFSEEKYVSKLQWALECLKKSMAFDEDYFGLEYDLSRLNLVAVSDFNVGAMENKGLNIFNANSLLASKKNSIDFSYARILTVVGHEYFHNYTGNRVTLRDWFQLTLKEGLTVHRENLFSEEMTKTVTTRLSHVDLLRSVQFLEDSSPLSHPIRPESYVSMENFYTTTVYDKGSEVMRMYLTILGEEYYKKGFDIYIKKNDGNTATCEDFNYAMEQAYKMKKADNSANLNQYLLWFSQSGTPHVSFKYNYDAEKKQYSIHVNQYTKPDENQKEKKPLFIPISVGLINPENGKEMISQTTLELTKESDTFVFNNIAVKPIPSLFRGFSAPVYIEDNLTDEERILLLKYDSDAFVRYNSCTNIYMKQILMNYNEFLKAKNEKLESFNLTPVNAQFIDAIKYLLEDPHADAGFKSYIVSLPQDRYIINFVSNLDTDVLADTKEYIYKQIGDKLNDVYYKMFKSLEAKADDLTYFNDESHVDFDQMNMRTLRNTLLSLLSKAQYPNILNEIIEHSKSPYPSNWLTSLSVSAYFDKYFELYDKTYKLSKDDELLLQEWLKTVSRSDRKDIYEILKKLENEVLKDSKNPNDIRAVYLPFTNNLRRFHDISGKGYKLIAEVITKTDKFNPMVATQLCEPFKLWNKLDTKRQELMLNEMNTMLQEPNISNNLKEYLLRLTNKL
# [1] = biological target: T2, Probable nicotinate-nucleotide adenylyltransferase (Staphylococcus aureus (strain N315), UniProt P65502); assay type: functional, Staphylococcus aureus subsp. aureus N315; settings: read-out: IC50_Mean;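 for IC50 Mean: confirmatory dose-response retesting of NadD inhibitor hits first found in an ultra-high-throughput screen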
# [2] = biological target: T2, Probable nicotinate-nucleotide adenylyltransferase; assay type: functional, Staphylococcus aureus subsp. aureus N315
# Cytochrome P450 2C19 = Cytochrome P450 2C19 (Homo sapiens, UniProt P33261); assay: Cytochrome panel assay with activity outcomes. Panel member name: p450-cyp2c19 Compounds with AC50 equal or less than 10 uM are considered active; assay type: functional
# [3] = biological target: T3, High affinity choline transporter 1 (Homo sapiens, UniProt Q9GZV3); assay: CHT inhibitors, dose response, cell-based, 5-point CRC, membrane potential dye (AID 504840); assay type: functional
# T3 sequence (Q9GZV3 whole entry): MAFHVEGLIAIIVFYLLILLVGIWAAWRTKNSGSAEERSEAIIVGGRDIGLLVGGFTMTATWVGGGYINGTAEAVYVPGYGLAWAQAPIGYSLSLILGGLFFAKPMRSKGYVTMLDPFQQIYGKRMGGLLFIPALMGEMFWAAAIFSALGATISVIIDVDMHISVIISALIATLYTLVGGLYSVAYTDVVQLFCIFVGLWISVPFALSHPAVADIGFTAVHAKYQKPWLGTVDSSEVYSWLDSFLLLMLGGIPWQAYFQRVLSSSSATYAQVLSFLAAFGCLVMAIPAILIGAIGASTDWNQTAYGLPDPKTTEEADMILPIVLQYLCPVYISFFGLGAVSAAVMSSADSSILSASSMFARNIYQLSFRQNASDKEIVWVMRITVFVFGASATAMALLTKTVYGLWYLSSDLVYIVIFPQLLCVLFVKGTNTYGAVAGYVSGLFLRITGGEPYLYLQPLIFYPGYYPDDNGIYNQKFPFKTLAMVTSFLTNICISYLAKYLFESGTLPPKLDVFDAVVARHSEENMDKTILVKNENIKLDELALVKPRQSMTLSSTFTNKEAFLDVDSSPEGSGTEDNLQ
# [4] = Luminescence Cell-Based Dose Response HTS to Identify Inhibitors of 5'UTR Stem-Loop Driven Prion Protein mRNA Translation in H4 Neuroglioblastoma Cells. [Related pubchem assays: 1827 (Project Summary), 1813 (Primary HTS)]; assay type: functional
# [5] = inhibitors of firefly luciferase expression or activity, dose response, H4 neuroglioma cells, luminescence (AID 1990); assay type: functional, cell-based
# [6] = control 3'UTR Renilla luciferase suppression, dose response, counter-screen for Shn3 inhibitor project, cell-based, Clone20-Shn3RL, cherry-picked (AID 624133); assay type: functional
# [7] = inhibitors of SNCA 5'UTR-driven reporter translation, confirmation, H4 neuroglioma cells, luminescence (AID 1988); assay type: functional, cell-based
# [8] = biological target: Luciferin 4-monooxygenase (Photinus pyralis, UniProt P08659); assay: firefly luciferase enzyme inhibitors, dose response, biochemical, luminescence (AID 1891)
# [9] = HepG2 cell cytotoxicity, dose response, cytotoxicity control for Shn3 inhibitor project, CellTiter-Glo, cherry-picked (AID 624134); assay type: functional, cell-based
# [10] = biological target: T4, Heat shock factor protein 1 (Mus musculus, UniProt P38532); assay: inhibition of MG132-induced HSE-luciferase signal, confirmation, cell-based, NIH3T3, luminescence, dose retest (AID 2382); assay type: functional;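 note: NIH3T3 fibroblasts with HSF1-driven luciferase reporter stressed by proteasome inhibitor MG132; luminescence from HSF1-driven luciferase expression after 8 hours of MG132 stress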
# T4 sequence (P38532 whole entry): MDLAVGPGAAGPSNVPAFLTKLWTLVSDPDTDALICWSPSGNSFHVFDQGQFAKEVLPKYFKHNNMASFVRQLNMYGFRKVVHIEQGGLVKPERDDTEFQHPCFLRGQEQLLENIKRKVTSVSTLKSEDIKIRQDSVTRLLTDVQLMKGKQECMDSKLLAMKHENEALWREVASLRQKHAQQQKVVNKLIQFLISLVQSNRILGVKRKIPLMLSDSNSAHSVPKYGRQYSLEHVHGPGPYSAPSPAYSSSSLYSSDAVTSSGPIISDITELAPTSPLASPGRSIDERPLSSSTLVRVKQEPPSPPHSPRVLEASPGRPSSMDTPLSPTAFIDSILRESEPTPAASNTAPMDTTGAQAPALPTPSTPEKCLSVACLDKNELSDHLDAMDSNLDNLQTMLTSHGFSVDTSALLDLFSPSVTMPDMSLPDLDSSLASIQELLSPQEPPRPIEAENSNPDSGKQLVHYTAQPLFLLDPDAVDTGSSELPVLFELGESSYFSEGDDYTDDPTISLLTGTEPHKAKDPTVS
# Protein skinhead-1 = biological target: T5, Protein skinhead-1 (Caenorhabditis elegans, UniProt P34707); assay type: functional
# T5 sequence (P34707 whole entry): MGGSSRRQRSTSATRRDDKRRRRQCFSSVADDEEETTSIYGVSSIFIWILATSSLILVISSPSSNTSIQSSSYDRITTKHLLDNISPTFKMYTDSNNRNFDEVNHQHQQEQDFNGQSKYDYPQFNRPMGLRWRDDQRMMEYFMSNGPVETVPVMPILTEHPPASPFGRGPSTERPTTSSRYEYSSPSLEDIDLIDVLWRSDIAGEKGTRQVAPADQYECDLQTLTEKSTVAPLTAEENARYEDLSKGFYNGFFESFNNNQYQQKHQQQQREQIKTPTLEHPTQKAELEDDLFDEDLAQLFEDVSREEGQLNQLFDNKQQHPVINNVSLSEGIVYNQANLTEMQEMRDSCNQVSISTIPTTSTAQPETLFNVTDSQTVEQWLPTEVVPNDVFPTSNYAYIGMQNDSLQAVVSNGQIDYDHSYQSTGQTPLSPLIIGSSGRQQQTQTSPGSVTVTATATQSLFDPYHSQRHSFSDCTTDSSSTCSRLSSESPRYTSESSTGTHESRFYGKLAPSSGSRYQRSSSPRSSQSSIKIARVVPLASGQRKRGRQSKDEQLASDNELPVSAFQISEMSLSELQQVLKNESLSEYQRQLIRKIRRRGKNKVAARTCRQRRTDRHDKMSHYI
# [11] = Luminescence Cell-Based Dose Confirmation HTS to Identify Inhibitors of Platelet Dense Granule Release. [Related pubchem assays: 1663 (Primary HTS), 1678 (Summary of Project)]; assay type: functional
# [12] = Shn3 3'UTR reporter inhibitors, dose response, cell-based, Clone20 osteoblasts, firefly luciferase, cherry-picked (AID 624132); assay type: functional;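 note: firefly luciferase luminescence from reporter carrying the Shn3 3'UTR in osteoblasts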
# H9c2 = assay: cells; assay type: functional, cell-based; settings: Rattus norvegicus, H9c2, Myocardium;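 note: confirmatory concentration-response retest of ultra-high-throughput screening hits for modulation of myocardial damage; cell death induced by hydrogen peroxide oxidative stress; compound pretreatment for 60 min then peroxide exposure for 2 h; potency is for protecting the cells against peroxide damage rather than for killing them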
# Paired box protein Pax-8 = Paired box protein Pax-8 (Homo sapiens, UniProt Q06710); assay: inhibitors of PAX8-driven TPO luciferase reporter, dose response, RMG-I cells, cherry-pick (AID 687027); assay type: functional, cell-based;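 note: luciferase reporter driven by Pax8 target thyroperoxidase promoter measured by SteadyGlo luminescence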
# Caspase-6 = biological target: T6, Caspase-6 (Homo sapiens, UniProt P55212); assay: human caspase-6 inhibitors, dose response, biochemical, VEID-R110 fluorescence, cherry-pick (AID 720632)
# T6 sequence (P55212 whole entry): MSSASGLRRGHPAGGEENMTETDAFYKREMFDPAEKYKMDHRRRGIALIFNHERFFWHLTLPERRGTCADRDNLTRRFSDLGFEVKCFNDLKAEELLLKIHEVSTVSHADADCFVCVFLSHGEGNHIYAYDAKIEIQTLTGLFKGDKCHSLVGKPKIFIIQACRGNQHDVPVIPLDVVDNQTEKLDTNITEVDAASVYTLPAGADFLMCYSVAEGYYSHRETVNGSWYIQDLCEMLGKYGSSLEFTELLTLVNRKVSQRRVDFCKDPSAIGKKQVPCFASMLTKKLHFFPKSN
# T2 sequence (P65502 whole entry): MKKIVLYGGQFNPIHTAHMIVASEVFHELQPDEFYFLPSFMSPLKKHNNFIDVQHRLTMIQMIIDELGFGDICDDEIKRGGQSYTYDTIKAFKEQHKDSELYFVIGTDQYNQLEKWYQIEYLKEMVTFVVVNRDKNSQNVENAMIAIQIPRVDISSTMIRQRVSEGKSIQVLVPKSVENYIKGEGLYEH
# Sequence of Paired box protein Pax-8 (Q06710 whole entry): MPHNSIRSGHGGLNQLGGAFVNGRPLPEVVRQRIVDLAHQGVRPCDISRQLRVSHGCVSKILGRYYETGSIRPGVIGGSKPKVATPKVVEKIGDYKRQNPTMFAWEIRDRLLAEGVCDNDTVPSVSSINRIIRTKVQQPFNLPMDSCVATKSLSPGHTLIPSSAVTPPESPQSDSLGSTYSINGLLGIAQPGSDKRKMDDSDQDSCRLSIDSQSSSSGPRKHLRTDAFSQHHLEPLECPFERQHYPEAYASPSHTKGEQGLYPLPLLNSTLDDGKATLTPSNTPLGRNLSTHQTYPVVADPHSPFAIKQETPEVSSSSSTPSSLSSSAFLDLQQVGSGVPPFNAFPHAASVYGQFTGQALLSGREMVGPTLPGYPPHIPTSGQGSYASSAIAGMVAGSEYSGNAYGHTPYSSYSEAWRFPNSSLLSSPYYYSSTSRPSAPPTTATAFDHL
# Sequence of Cytochrome P450 2C19 (P33261 whole entry): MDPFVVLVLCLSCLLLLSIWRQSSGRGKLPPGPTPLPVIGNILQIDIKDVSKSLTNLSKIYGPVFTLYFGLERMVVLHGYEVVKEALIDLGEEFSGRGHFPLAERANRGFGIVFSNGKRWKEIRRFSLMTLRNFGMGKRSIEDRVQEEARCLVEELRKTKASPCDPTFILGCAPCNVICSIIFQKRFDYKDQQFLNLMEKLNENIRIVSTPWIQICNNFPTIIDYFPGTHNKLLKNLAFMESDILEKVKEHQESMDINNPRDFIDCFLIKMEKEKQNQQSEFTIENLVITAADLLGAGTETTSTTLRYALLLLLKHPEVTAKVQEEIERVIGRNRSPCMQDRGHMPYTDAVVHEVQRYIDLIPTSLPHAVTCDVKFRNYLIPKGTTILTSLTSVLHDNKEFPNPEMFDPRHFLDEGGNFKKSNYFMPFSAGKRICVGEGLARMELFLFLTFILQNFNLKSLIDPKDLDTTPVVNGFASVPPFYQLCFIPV
# Sequence of Luciferin 4-monooxygenase (P08659 whole entry): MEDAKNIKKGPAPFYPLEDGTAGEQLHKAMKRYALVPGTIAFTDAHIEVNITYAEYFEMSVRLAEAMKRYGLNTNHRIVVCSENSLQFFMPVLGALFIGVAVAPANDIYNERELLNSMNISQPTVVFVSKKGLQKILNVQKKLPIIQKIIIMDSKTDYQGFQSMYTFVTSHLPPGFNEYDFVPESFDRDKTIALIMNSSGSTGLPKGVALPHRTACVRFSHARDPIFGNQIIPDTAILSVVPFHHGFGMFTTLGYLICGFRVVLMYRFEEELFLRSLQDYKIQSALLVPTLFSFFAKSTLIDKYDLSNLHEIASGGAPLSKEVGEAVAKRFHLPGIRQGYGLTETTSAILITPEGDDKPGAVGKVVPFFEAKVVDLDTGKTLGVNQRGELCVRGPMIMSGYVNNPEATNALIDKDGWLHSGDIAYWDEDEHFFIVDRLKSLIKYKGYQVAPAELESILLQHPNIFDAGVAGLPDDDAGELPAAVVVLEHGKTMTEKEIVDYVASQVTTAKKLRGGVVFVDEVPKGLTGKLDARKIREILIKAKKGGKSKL
smiles,measurement,setting,value
Cc1ccc(S(=O)(=O)N(NC2=NS(=O)(=O)c3ccccc32)C(=O)c2ccccc2)cc1,IC50,Aminopeptidase N,46.8 µM (active)
O=C(COC(=O)c1ccc(Oc2ccccc2)cc1)Nc1nnc(-c2ccccc2)o1,IC50,[1],23.8 µM (active)
same,IC50,[2],9.58 µM (active)
Cc1ccc(C)c(NC(=O)C(OC(=O)c2ccc(NC(=O)CC#N)cc2)c2ccccc2)c1 (stereo not drawn),IC50,[1],42.7 µM (active)
same,IC50,[2],11.4 µM (active)
CCOc1nc(N=C(N)N)nc2c(C)cccc12,AC50,Cytochrome P450 2C19,inconclusive
same,IC50,Aminopeptidase N,7.38 µM (active)
c1ccc(CCCCN2C(Nc3ccccc3)=NC[C@@H]2Cc2ccccc2)cc1,IC50,[3],12 µM (active)
C[n+]1ccccc1COc1ccc(C(C)(C)C)cc1,IC50,[3],13.8 µM (active)
CCC(C)(C)n1nnnc1C(c1ccc2ncccc2c1)N1CCN(c2nc3ccccc3s2)CC1 (stereo not drawn),IC50,Aminopeptidase N,51.1 µM (active)
CCc1cc(=O)oc2c(CN3CCN(C)CC3)c(O)c(Cl)cc12,IC50,Aminopeptidase N,35.9 µM (active)
COc1ccc2c(c1)sc1nc(-c3ccccc3)cn12,EC50,[4],0.388 µM (active)
same,EC50,[5],0.681 µM (active)
same,AC50,[6],13.2 µM (active)
same,EC50,[7],0.299 µM (active)
same,EC50,[8],0.669 µM (active)
same,AC50,[9],42.3 µM (active)
same,EC50,[10],2.23 µM (active)
same,IC50,Protein skinhead-1,> 100 µM (inactive)
same,EC50,[11],4.62 µM (active)
same,AC50,[12],7.37 µM (active)
CN(C)C(=O)c1ccc(-c2nnc(O)c3ccccc23)cc1,IC50,H9c2,> 79 µM (inactive)
COc1ccc(C(C(=O)NC2CCCCC2)N(C(=O)c2ccco2)c2ccccc2C(C)=O)cc1OC (stereo not drawn),IC50,[3],2 µM (active)
CC(=O)c1cccc(-c2cnc3c(NC=O)cc(-c4cccc(C(=O)N(C)C)c4)cn23)c1,IC50,H9c2,> 79 µM (inactive)
CC1CCCCN1CCNC(=O)CN1C(=O)CSc2ccc(S(=O)(=O)N3CCCCC3)cc21 (stereo not drawn),IC50,[3],12.9 µM (active)
COc1ccc(-c2cnc3c(NC=O)cc(-c4cccc(NS(C)(=O)=O)c4)cn23)cc1OC,AC50,Paired box protein Pax-8,5.09 µM (active)
same,IC50,H9c2,> 79 µM (inactive)
C/C(=N\Nc1ccc(C(=O)O)cc1)c1ccc(Br)cc1,AC50,Caspase-6,7.07 µM (active)
COc1ccc2ccccc2c1/C=N/NC(=O)c1nnn(-c2nonc2N)c1C(C)C,IC50,[1],78 µM (active)
same,IC50,[2],38 µM (active)
CCc1cccc2c(/C=N/NC(=O)c3cccc(S(=O)(=O)Nc4ccccc4Cl)c3)c[nH]c12,IC50,[1],31.2 µM (active)
same,IC50,[2],11.2 µM (active)
Cn1/c(=N/CC(O)COc2ccccc2)sc2ccccc21 (stereo not drawn),IC50,[3],13.5 µM (active)
